Data taken from patent US20240226072A1 (Stichting Het Nederlands Kanker Instituut, priority 2022, published 2024).

Key:
[1] = Plasma pharmacokinetics and tissue distribution 2 h after oral cabazitaxel 10 mg/kg with vehicle or 25 mg/kg ritonavir in wild-type, Oatp1a/1b−/−, Oatp1a/1b/2b1−/−, OATP1B1- and OATP1B3-transgenic mice; type: in vivo; conditions: ritonavir 25 mg/kg oral, cabazitaxel 10 mg/kg oral; for CLiver / Cbrain / Pbrain, brain accumulation per h / SIC (% of dose), small intestinal content: 2 h; for AUC(0-t) / Cmax / Tmax: male, FVB, mouse, plasma, po, 25 mg/kg; for AUC(0-t): AUC0-[…]
Protocol: All animals were fasted 2 to 3 hours prior to the start of the experiment to minimize variation in absorption after oral administration. […] Subsequently, cardiac puncture was performed with a heparinized needle and syringe collecting a final blood sample. […] All samples were stored at −30° C. until analysis.
Differences were considered statistically significant when P<0.05. All data are presented as geometric mean±SD.

[2] = input of human simulation, cited from earlier work
in vivo [3] = conditions: male, mouse, po; for AUC(0-t): AUC0-24 h
Protocol: (§1) The Jevtana (10 mg/mL) solution contains 0.26 mg/mL polysorbate 80 and 15% (w/v) ethanol, and is adjusted to pH 2-6 with citric acid. […] The stock solution was further diluted 5-fold with water to reach a 2.5 mg/mL dosing solution for oral administration. The vehicle solution only consists of polysorbate 80, ethanol and water (1:1:8, v/v/v). […] All dosing solutions were prepared freshly on the day of the experiment.
(§2) At the termination time point of 24 hours, mice were anesthetized using an isoflurane evaporator with 3% isoflurane with 0.8 L/min air and 0.3 L/min oxygen. A final blood sample was taken using cardiac puncture, using Eppendorf tubes previously prepared with heparin as an anticoagulant. Subsequently, the anesthetized mice were sacrificed by cervical dislocation and the tissues of interest were collected. Brain, liver, spleen, kidney, small intestine, and testis were collected. The small intestinal content (SIC) was separately collected by removing this from the small intestinal tissue, which was subsequently rinsed with saline to remove possibly fecal residue. The blood samples were centrifuged at 9,000×g for 6 minutes at 4° C., and the plasma fraction was isolated and stored at −30° C. until analysis. Brain, liver, spleen, kidney, small intestinal tissue, SIC, and testis were homogenized in a FastPrep-24™ 5G homogenizer (M. P. Biomedicals, Santa Ana, CA, USA) for 1 min with 1, 3, 1, 2, 3, 2, and 1 mL of 2% (w/v) BSA in Milli-Q water, respectively. Until analysis of the samples, they were all stored at −30° C.
(§3) Pharmacokinetic parameters were estimated by non-compartmental analysis using the software package of PK solutions 2.0.2 (SUMMIT, Research Service). The area under the curve (AUC) of the plasma-concentration time curve for all the compounds was calculated using the linear trapezoidal rule without extrapolating to infinity. The peak plasma concentration (Cmax) and the time to reach peak plasma concentration (Tmax) were obtained directly from the individual raw data. For the statistical analysis and the graphs GraphPad Prism 9 (GraphPad Software Inc., La Jolla, CA, USA) was used. The statistics for the comparison of multiple groups were calculated with the one-way analysis of variance (ANOVA), whereas Sidak's post hoc correction was performed. Log-transformation before statistical analysis was applied, when variances within the groups were not homogeneously distributed. Differences were considered statistically significant when P<0.05. All data are presented as geometric mean±SD.

in vivo [4] = conditions: male, mouse, po, 25 mg/kg, Tmax
Protocol: as §1, §2, §3
The last parameter is in many cases the most useful, as it takes the overall exposure into account.

## CC(C)c1nc(CN(C)C(=O)N[C@H](C(=O)N[C@@H](Cc2ccccc2)C[C@H](O)[C@H](Cc2ccccc2)NC(=O)OCc2cncs2)C(C)C)cs1 [ritonavir]
[1]; OATP1B1-transgenic mice
  CLiver: 42478 ± 7201 pmol/g
  Cbrain: 277 ± 96.0 pmol/g
  Pbrain, brain accumulation per h: 0.012 ± 0.002 h⁻¹
  SIC (% of dose), small intestinal content: 5.81 ± 3.14 % of dose
  AUC(0-t): 14.3 ± 2.02 µM·h
  Cmax: 8.35 ± 1.3 µM
  Tmax: 1.17 h
[1]; OATP1B3-transgenic mice
  CLiver: 45512 ± 4650 pmol/g
  Cbrain: 249 ± 47.9 pmol/g
  Pbrain, brain accumulation per h: 0.013 ± 0.005 h⁻¹
  SIC (% of dose), small intestinal content: 4.44 ± 2.65 % of dose
  AUC(0-t): 14.8 ± 1.22 µM·h
  Cmax: 8.67 ± 1.15 µM
  Tmax: 1.33 h
[1]; Oatp1a/1b/2b1−/− mice
  CLiver: 38153 ± 8561 pmol/g
  Cbrain: 236 ± 82.5 pmol/g
  Pbrain, brain accumulation per h: 0.014 ± 0.003 h⁻¹
  SIC (% of dose), small intestinal content: 6.03 ± 3.23 % of dose
  AUC(0-t): 13.1 ± 2.14 µM·h
  Cmax: 7.74 ± 1.12 µM
  Tmax: 1 h
[1]; Oatp1a/1b−/− mice
  CLiver: 43800 ± 5797 pmol/g
  Cbrain: 306 ± 45.5 pmol/g
  Pbrain, brain accumulation per h: 0.014 ± 0.003 h⁻¹
  SIC (% of dose), small intestinal content: 3.84 ± 2.08 % of dose
  AUC(0-t): 16.9 ± 3.95 µM·h
  Cmax: 11.2 ± 5.21 µM
  Tmax: 1.21 h
[1]; wild-type mice
  AUC(0-t): 5.96 ± 1.15 µM·h
  Cmax: 3.62 ± 0.765 µM
  Tmax: 0.667 h
  CLiver: 44998 ± 6028 pmol/g
  Pbrain, brain accumulation per h: 0.010 ± 0.002 h⁻¹
  SIC (% of dose), small intestinal content: 3.90 ± 2.22 % of dose
[2]
  IIV CL: 46.7 CV%
[2]; source (18)
  CL: 7.72 L/h
  IIV CV: 12.8 CV%
  IIV F: 52.2 CV%
  IIV Vc: 93.5 CV%
  IOV CV: 22.2 CV%
  IOV MAT: 32.1 CV%
  MAT: 8.45 h
  Q: 3.99 L/h
  V: 23 L
  Vp: 17.9 L
In vivo [3]; Cyp3aXAV (human CYP3A in Cyp3a−/−, FVB background), 1 mg/kg
  AUC(0-t): 0.000447 ± 0.000766 µM·h
In vivo [3]; FVB (wild-type), 1 mg/kg
  AUC(0-t): 0.00591 ± 0.0018 µM·h
In vivo [3]; FVB, Cyp3aXAV, 1 mg/kg
  Cmax: 0.000532 ± 0.00108 µM
  Tmax: 1.38 ± 3.25 h
In vivo [3]; FVB, Cyp3aXAV, 10 mg/kg
  AUC(0-t): 0.075 ± 0.0188 µM·h
  Cmax: 0.0829 ± 0.0159 µM
  Tmax: 0.25 h
In vivo [3]; FVB, wild-type, 1 mg/kg
  Cmax: 0.00576 ± 0.00138 µM
  Tmax: 0.33 ± 0.13 h
In vivo [3]; FVB, wild-type, 10 mg/kg
  AUC(0-t): 1.44 ± 0.529 µM·h
  Cmax: 0.749 ± 0.322 µM
  Tmax: 0.92 ± 0.2 h
In vivo [4]; Cyp3a−/− (FVB background)
  Tmax: 2.33 ± 0.82 h
In vivo [4]; wild-type FVB
  Tmax: 2 h
